16 compounds from patent US20220096411A1, “COMBINING METABOLIC STIMULATION AND AMINO ACIDS TO SENSITIZE TOLERANT BACTERIA TO ANTIBIOTICS” (priority 2019, published 2022) can be followed below.

In assay [1] the test system is Escherichia coli K12 strain MG1655. As to the kind of experiment: MIC determination (metabolite-enabled MIC from optical density dose-response). Format: cell-based. Conditions: for change of ampicillin MIC on amino acid supplementation: across all tested growth-supporting metabolites (carbon sources), FIG. 2B; for metabolite-enabled MIC of β-lactams upon metabolite supplementation: ampicillin, carbenicillin, mecillinam, penicillin, 1% LB; for metabolite-enabled MIC of β-lactams upon metabolite supplementation / metabolite-enabled MIC, D-isomer compared with L-isomer: metabolite 10 mM; for metabolite-enabled MIC, D-isomer compared with L-isomer: β-lactams of FIG. 1B; for potentiation of the antibiotic by D-amino acids: with pyruvate (FIG. 2E) or without metabolic stimulant (FIG. 2F), ampicillin potentiated, comparators D-cycloserine, ciprofloxacin, gentamicin are the non-β-lactams.

The test system is the same in assay [2]. As to the kind of experiment: Killing assay (CFU) of tolerant stationary phase cultures. As to conditions: for ability of individual carbon source to restore β-lactam antibiotic sensitivity (CFU/mL): tolerant cultures grown in 100% LB medium, FIG. 5. Format: cell-based.
The test system of assay [3] is E. coli genetic knockout ΔdadA. Description: Ampicillin sensitization of knockout strain unable to catabolize D-alanine into pyruvate. The assay is classed as cell-based, Escherichia coli. Conditions: FIG. 2A; for sensitivity of tolerant ΔdadA bacteria to ampicillin on amino acid supplementation alone: no pyruvate; for potentiation of ampicillin sensitivity of ΔdadA strain by amino acid: strain supplemented with pyruvate.

For assay [4], the system named is Escherichia coli K12 strain MG1655. Format: cell-based.
In assay [5] the test system is clinical isolate of Escherichia coli (isolate DICON-146). As to the kind of experiment: Killing assay, ampicillin-resistant ESBL clinical isolate in stationary phase. The assay is classed as cell-based. Conditions: D-methionine added on top of sulbactam and pyruvate; FIG. 3C.

Regarding `C[C@@H](N)C(=O)O` [D-alanine], in assay [1], the “change of ampicillin MIC on amino acid supplementation” value is “consistently lowered the ampicillin MIC” and the “metabolite-enabled MIC, D-isomer compared with L-isomer” value is on record as “outperformed their corresponding L-isomers”. Also, in assay [1] (FIG. 1B), the “metabolite-enabled MIC of β-lactams upon metabolite supplementation” value is recorded as “lowest observed MICs”. Also, the “performance of metabolite in sensitizing cultures to ampicillin (CFU confirmed cell death)” value in assay [2] (cultures treated with ampicillin and metabolite, FIG. 1A) is listed as “strong”. In addition, in assay [3], the “sensitivity of tolerant ΔdadA bacteria to ampicillin on amino acid supplementation alone” value is reported as “equally insensitive to ampicillin” and the “potentiation of ampicillin sensitivity of ΔdadA strain by amino acid” value is recorded as “potentiate sensitivity to ampicillin”.

For `N[C@@H]1CONC1=O` [D-cycloserine, reference compound], the “potentiation of the antibiotic by D-amino acids” value (from here on “potentiation of the antibiotic”) in assay [1] is “specific to β-lactam antibiotics”.

Turning to `CSCC[C@@H](N)C(=O)O` [D-methionine], the “observed effect size of D-amino acid on β-lactam MIC” value in assay [1] (FIG. 1B, FIG. 2C) is “larger than for D-alanine”. Moreover, the “sensitization of stationary phase MG1655 to ampicillin in MOPS-rich medium” value in assay [2] (MOPS-rich medium, D-methionine added on top of pyruvate, FIG. 3A) is listed as “further potentiated ampicillin”. Further, the “effect of D-methionine on population density (CFU)” value in assay [4] (used alone or in combination with xylose, FIG. 7B) is reported as “did not increase population density”. Besides, in assay [5], the “restoration of ampicillin sensitivity of resistant (ESBL) E. coli in stationary phase” value is listed as “further potentiated killing by lower drug concentrations”.

On to `O=C(O)[C@H]1CCCN1` [D-proline], for which the “change of ampicillin MIC, D-amino acid compared with L-isomer” value in assay [1] (cultures sensitized with pyruvate, alanine pair in dadA mutant, FIG. 2C) is recorded as “less robust than for other D-amino acids”. For `N[C@H](CO)C(=O)O` [D-serine], the “metabolite-enabled MIC of β-lactams upon metabolite supplementation” value in assay [1] (FIG. 1B) was “lowest observed MICs”. The “metabolite-enabled MIC, D-isomer compared with L-isomer” value in assay [1] is recorded as “outperformed their corresponding L-isomers”. `C[C@H](N)C(=O)O` [L-alanine]: the “change of ampicillin MIC on amino acid supplementation” value in assay [1] is “did not”. Also, in assay [3], the “sensitivity of tolerant ΔdadA bacteria to ampicillin on amino acid supplementation alone” value is “equally insensitive to ampicillin” and the “potentiation of ampicillin sensitivity of ΔdadA strain by amino acid” value is recorded as “no such potentiation was observed”.

As for `CC1(C)S[C@@H]2[C@H](NC(=O)[C@H](N)c3ccccc3)C(=O)N2[C@H]1C(=O)O` [ampicillin, reference compound], in assay [1], the “potentiation of the antibiotic” value is reported as “specific to β-lactam antibiotics”. In addition, in assay [2] (24 hour treatment with 1 mg/ml ampicillin, cultures grown in LB 24 hours, FIG. 1A), the “killing of stationary phase cultures by the antibiotic alone” value is reported as “not killed”.

`O=C[C@@H](O)[C@H](O)[C@H](O)CO` [arabinose]: the “ability of individual carbon source to restore β-lactam antibiotic sensitivity (CFU/mL)” value (“ability of individual carbon source” for short) in assay [2] is “varying abilities to restore β-lactam antibiotic sensitivity”. For the compound `O=C(CO)[C@@H](O)[C@H](O)[C@H](O)CO` [fructose], the “ability of individual carbon source” value in assay [2] is on record as “varying abilities to restore β-lactam antibiotic sensitivity”. Take `O=C(O)[C@H](O)[C@@H](O)[C@H](O)[C@H](O)CO` [gluconate]: in assay [2], the “ability of individual carbon source” value was “varying abilities to restore β-lactam antibiotic sensitivity”.

With `OCC(O)CO` [glycerol], the “ability of individual carbon source” value in assay [2] is “varying abilities to restore β-lactam antibiotic sensitivity”. As for `OC[C@@H](O)[C@@H](O)[C@H](O)[C@H](O)CO` [mannitol], the “ability of individual carbon source” value in assay [2] is “varying abilities to restore β-lactam antibiotic sensitivity”. `CCN1CCN(C(=O)N[C@@H](C(=O)N[C@@H]2C(=O)N3[C@@H]2SC(C)(C)[C@@H]3C(=O)O)c2ccccc2)C(=O)C1=O` [piperacillin, reference compound]: in assay [2] (metabolic stimulation by pyruvate and potentiation by D-amino acids, FIG. 2G), the “sensitization of tolerant bacteria to the antibiotic” value is “sensitized tolerant bacteria”. As for `CC1(C)[C@H](C(=O)O)N2C(=O)C[C@H]2S1(=O)=O` [sulbactam, reference compound], the “restoration of ampicillin sensitivity of resistant (ESBL) E. coli in stationary phase” value in assay [5] was “unable to restore sensitivity to ampicillin”. With `O=C[C@H](O)[C@@H](O)[C@H](O)CO` [xylose], in assay [2], the “ability of individual carbon source” value was “varying abilities to restore β-lactam antibiotic sensitivity”. Besides, the “effect of carbon source on growth and population density (CFU)” value in assay [4] (cultures grown in 1% LB medium, 10 mM, no antibiotic, FIG. 7A right) was “did stimulate growth and an increase in population density”. Besides, the “effect of carbon source on population density (CFU)” value in assay [4] (cultures grown in 100% LB medium, 10 mM, no antibiotic, FIG. 7A left) is “did not lead to an increase in population density”.

Consider gentamicin [reference compound], for which the “potentiation of the antibiotic” value in assay [1] was “specific to β-lactam antibiotics”.
